Laboratory results published in patent US9986723B2, “Screen and use of therapeutics for pancreatic ductal adenocarcinoma” (The Board of Regents of the University of Texas System, priority 2014, dated 2018).
pIC50: −log10 of the molar value.

What was measured:
[1] = target: vitamin K epoxide reductase (Homo sapiens, UniProt Q9BQB6); conditions: cited from earlier work
[2] = test system: Pan02; test: MTS cell growth assay, gemcitabine +/- warfarin; format: cell-based, murine; conditions: Mus musculus, Pan02, 120 h, gemcitabine alone, 5 days, read-out: Gemcitabine (nmol/L) median IC50
Description: (§1) Cytotoxicity and augmentation of chemotherapy response was measured by MTS assays conducted in 96-well plates; cells were plated on day 0 and drug was added on day 1 in 4-fold dilutions. Maximum concentration of 2,000 nmol/L for gemcitabine was used with or without the addition of a constant concentration of 2 μM warfarin or 1.1 μM 10C9. Relative cell number was determined by adding MTS (Promega; final concentration […]), incubating for 1 to 3 hours at 37° C., and reading absorbance. Drug sensitivity curves and IC50s were calculated using in-house software.

[3] = test system: ASPC; test: MTS cell growth assay, gemcitabine +/- warfarin; format: cell-based, human; conditions: Homo sapiens, 120 h; gemcitabine alone; 5 days, MTS; read-out: Gemcitabine (nmol/L) median IC50
Description: as §1

[4] = test system: Panc1; test: MTS cell growth assay, gemcitabine +/- warfarin; format: cell-based, human; conditions: Homo sapiens, PANC-1, 120 h; gemcitabine alone; 5 days, MTS; read-out: Gemcitabine (nmol/L) median IC50
Description: as §1

[5] = test system: Capan; test: MTS cell growth assay, gemcitabine +/- warfarin; format: cell-based; conditions: Homo sapiens, 120 h, gemcitabine alone, 5 days, read-out: Gemcitabine (nmol/L) median IC50
Description: as §1

[6] = test system: MiaPaca; test: MTS cell growth assay, gemcitabine +/- warfarin; format: cell-based; conditions: Homo sapiens, MIA PaCa-2, 120 h, gemcitabine alone, 5 days, read-out: Gemcitabine (nmol/L) median IC50
Description: as §1

[7] = test system: MiaShAxl; test: MTS cell growth assay, gemcitabine +/- warfarin; format: cell-based; conditions: Homo sapiens, 120 h, gemcitabine alone, 5 days, read-out: Gemcitabine (nmol/L) median IC50
Description: as §1

[8] = test system: PanIN and PDA tumor growth in KIC mice; test: Two week in vivo assay in Rgs16::GFP;KIC mice, Rgs16::GFP intensity at P29; parameters: species or system mouse; conditions: for effect on GFP levels when combined with GA: drug dissolved in 30% Cyclodextrin
Description: Fluorescent microscopy and GFP quantification. Pancreatic expression of Rgs16::GFP in GFP-PDA mice was quantified using a Zeiss Lumar microscope. Images were captured using a single-channel camera (Hamamatsu) in 1344×1024 resolution with 1 sec exposure under 48× magnification with 1×1 binning, analog gain=10, and analog offset=2 settings. Pancreatic fields representing the tumor burden (3-4 fields for P15 pups and 5 or more for pups from P23 onwards) of the pancreas were imaged covering up to 50% of the organ surface area. All images were saved in gray-scale 16-bit tiff format. Images were quantified using NIH ImageJ software with background subtraction with a radius of 50 pixels. A variable and tight threshold was set to eliminate residual background. Intensities of all particles with size ≥5 pixels were summed to obtain the total light intensity per image.
Drug dosages. GFP-PDA mice were injected intraperitoneally with gemcitabine (Eli Lilly; Indianapolis, Ind., USA) (12.5 mg/kg/day given 3 days/week, dissolved in PBS), Abraxane (Cellgene; Summit, N.J., USA) (5 mg/kg/day given 2 days/week, diluted in 2% saline solution), BGB324 (BerGenBio, Bergen, Norway) (5 mg/kg/day given 5 days/week, dissolved in a mix of DMSO:ethanol:Kolliphor EL:water with 4:4:8:84 v/v ratio), and warfarin (0.2 mg/kg/day given 5 days/week, dissolved in PBS) according to injection schedules specified below. These doses were validated in prior mouse studies (Dineen et al., 2010; Kutluk Cenik et al., 2013; Ostapoff et al., 2013; Aguilera et al., 2014; Ostapoff et al., 2014). […] To verify tumor progression remains constant over the duration of these experiments, assays of untreated mice were interspersed with drug-treated cohorts, and warfarin-treated pups were the final cohort the inventors tested. Gemcitabine, Abraxane and warfarin were purchased from the UT Southwestern clinical pharmacy; BGB324 was a gift from BerGenBio.
Statistical analysis of GFP expression. GFP values were converted to log10 scale prior to statistical analysis. Graphs and their statistical comparisons were done using Graphpad Prism software with unpaired and two-tailed Student's t test. Significance between groups was indicated as ns (not significant); *p<0.05; **p<0.01; ***p<0.001; ****p<0.0001. Error bars in all the graphs are standard error mean (SEM). See FIGS. 7-8 for additional statistical analysis.
The therapeutic screening strategy was to treat KIC pups between P15-P28 (when PanIN and PDA are in rapid expansion) with anticancer drugs, sacrifice mice at P29, and capture Rgs16::GFP intensity with a dissection fluorescence microscope. Images of the five brightest non-overlapping fields of Rgs16::GFP expression were then collected, representing the regions of greatest tumor burden (FIGS. 17A-C).

[9] = test system: primary PDA cells; test: Rgs16::GFP PDA primary cell culture, live cell counts after 24 hr drug treatment; format: cell-based, mouse; conditions: for effect on cell viability and proliferation: 24 hr, gemcitabine 10 μM, BGB324 or warfarin 1 or 10 μM; for recovery of cell growth after drug removal: passages without drug after 24 hr treatment
Description: Cell proliferation counts of primary PDA culture after 24 hr treatment with (FIG. 20A) gemcitabine (purple round); (FIG. 20B) BGB324 (green round); (FIG. 20C) warfarin (blue round); or (FIG. 20D) BGB324 with warfarin (green or blue round) at the indicated concentrations. PDA primary cells were plated at equal density (black open circle) at the start. Next day, cells were treated with drugs (D, red font) for 24 hr (red line). Approximate cell number at the start of drug treatment was obtained from another plate with equal density (red open circle). At the end of treatment, cells in each group were counted and subsequent passages started with cells plated at equal density (grey asterisk). Drug treated groups were allowed to grow without drug selection thereafter. Control cells (Ctrl) on separate plates were grown without drug and counted at the end of each passage (black open circle). PDA live cell numbers were obtained via counts using a hemocytometer after 2% Trypan blue staining to distinguish between living and dead cells under an inverted microscope with 10× objective. Statistical significances are based on comparison of drug-treated cell counts to Ctrl. […] Statistical analyses were obtained by comparing counts of drug-treated cells to Ctrl via unpaired and two-tailed Student's t-test. *, p<0.05; **, p<0.01; ***, p<0.001; ****, p<0.0001. Asterisks match the color of the comparison group.
Rgs16::GFP PDA primary cell culture. Primary Rgs16::GFP PDA cells were harvested from 6-week-old KIC mice. Cells were grown in 25 mM Glucose DMEM (HyClone) with 10% FBS (Serum Source International), penicillin and streptomycin (Life Technologies) on rat tail collagen typel (BD Biosciences) coated plates (0.5 μg/cm^2) in a humidified incubator at 37° C. and 5% CO2. Cells reaching confluency were washed twice with PBS (HyClone) and lifted with 0.05% Trypsin-EDTA (HyClone) treatment up to 10 min in the incubator. For drug tests in FIGS. 20A-D, primary PDA cells were incubated with gemcitabine (10 μM dissolved in PBS), warfarin (1 μM or 10 μM dissolved in water), BGB324 (1 μM or 10 μM dissolved in DMSO) or warfarin and BGB324 together for 24 hrs in 37° C. incubator. PDA live cell numbers were obtained via counts using a hemocytometer following 2% trypan blue staining to distinguish dead cells under an inverted microscope.

[10] = Body weight of KIC weanling mice under chemotherapy; format: in vivo, mouse; conditions: P29
Description: FIG. 19. […] Comparison of body weight of female (round) and male (square) non-KIC control (Ctrl, grey), and KIC untreated (Unt, black) or chemotherapy-treated KIC groups are shown. […] Significances are based on comparison of any KIC group to Ctrl via unpaired and two-tailed Student's t-test. ****, p<0.0001.

[11] = test system: advanced PDA; conditions: patients; cited from earlier work
[12] = test system: advanced ovarian cancer; conditions: gemcitabine with carboplatin; cited from earlier work
[13] = target: T1, Axl (Homo sapiens, UniProt P30530); test: Phosphorylated Axl in Panc-1 cells (western blot, immunofluorescence); format: cell-based; conditions: overnight, 1% serum, 2 μM
T1 construct: Lysates were probed for total Axl (tAxl) and phosphorylated Axl (pAxl); endogenous in cells; host or cells: Panc-1
Description: (FIG. 24A) HEK293 cells engineered to stably express recombinant Gas6 were grown in the presence of Vitamin K or Vitamin K+warfarin. Gas6 levels and γ-carboxylation were assayed by immunoblotting conditioned media. Conditioned media from untransfected HEK293 cells was used as a negative control. (FIG. 24B) Panc1 cells were grown overnight in media with 1% serum with no additions (NT), warfarin (2 μM) or BGB324 (2 μM). Lysates were probed for total Axl (tAxl) and phosphorylated Axl (pAxl). (FIG. 24C) Panc1 cells were grown in the presence of control media, Vitamin K, warfarin or warfarin+Vitamin K. The level of phosphorylated Axl (pAXL, red) was determined by immunofluorescence. (FIG. 24D) Panc1 cells were grown overnight in media with 1% serum with no additions (control), warfarin (1 μM), Gas6 (1.3 nM) or Gas6+warfarin. Lysates were probed for phosphorylated Akt (pAkt) and actin. (FIG. 24E) Lysates from Panc1 tumors harvested from mice treated with control or warfarin were probed for expression of tAxl, pAxl, actin, pAKT, tAKT, and cleaved Parp. (FIG. 24F) The effect of warfarin on cell migration was assessed by a ‘scratch’ assay. Monolayers of the indicted cells were wounded with a pipet tip. The cells were incubated in media containing 2% serum+/−warfarin (2 μM) or media containing 2% serum+Gas6 (1.3 nM)+/−warfarin.

Sequence of vitamin K epoxide reductase (Q9BQB6 whole entry): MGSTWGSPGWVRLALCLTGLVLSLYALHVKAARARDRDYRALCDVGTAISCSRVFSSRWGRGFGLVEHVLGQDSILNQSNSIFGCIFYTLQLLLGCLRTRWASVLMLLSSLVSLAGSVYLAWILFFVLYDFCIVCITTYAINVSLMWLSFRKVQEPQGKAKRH
T1 sequence (P30530 26-894): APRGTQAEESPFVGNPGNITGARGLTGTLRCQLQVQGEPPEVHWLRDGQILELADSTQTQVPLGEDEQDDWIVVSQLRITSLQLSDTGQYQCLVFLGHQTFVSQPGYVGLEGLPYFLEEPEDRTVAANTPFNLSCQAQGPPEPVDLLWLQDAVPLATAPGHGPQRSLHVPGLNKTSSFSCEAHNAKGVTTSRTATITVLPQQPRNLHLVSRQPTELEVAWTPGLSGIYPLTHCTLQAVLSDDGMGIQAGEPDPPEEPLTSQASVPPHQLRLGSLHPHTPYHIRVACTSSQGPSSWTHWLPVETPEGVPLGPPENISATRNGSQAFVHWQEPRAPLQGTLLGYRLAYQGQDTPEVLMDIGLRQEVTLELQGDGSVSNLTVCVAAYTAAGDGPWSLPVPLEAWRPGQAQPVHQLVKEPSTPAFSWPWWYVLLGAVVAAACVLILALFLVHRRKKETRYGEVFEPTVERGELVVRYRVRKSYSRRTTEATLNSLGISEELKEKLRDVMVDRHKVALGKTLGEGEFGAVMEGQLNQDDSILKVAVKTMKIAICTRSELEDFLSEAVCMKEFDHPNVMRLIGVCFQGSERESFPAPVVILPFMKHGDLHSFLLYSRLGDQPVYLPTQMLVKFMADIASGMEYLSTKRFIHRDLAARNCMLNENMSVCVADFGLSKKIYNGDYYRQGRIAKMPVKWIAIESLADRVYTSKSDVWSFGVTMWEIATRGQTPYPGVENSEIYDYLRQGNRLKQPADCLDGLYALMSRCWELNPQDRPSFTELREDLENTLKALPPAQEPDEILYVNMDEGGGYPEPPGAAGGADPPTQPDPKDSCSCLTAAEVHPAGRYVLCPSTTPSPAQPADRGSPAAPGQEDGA

CC(=O)C[C@@H](c1ccccc1)c1c(O)c2ccccc2oc1=O [S-warfarin]
potency in producing an anticoagulant response relative to the R-isomer [1]: 2-5 times

Nc1ccn([C@@H]2O[C@H](CO)[C@@H](O)C2(F)F)c(=O)n1 [Gemcitabine]
pIC50 [2]: 7.12
pIC50 [3]: 7.80
pIC50 [4]: 7.77
pIC50 [5]: 8.16
pIC50 [6]: 7.84
pIC50 [7]: 7.68
effect on PanIN lesions and PDA tumor growth (Rgs16::GFP expression) ([8]; KIC mice treated P15-P28, i.p., sacrificed P29): reduction of GFP expression
effect on cell viability and proliferation [9]: killed cells
recovery of cell growth after drug removal [9]: did not recover
body weight gain / growth of weanling mice [10]: retards body weight gain
survival [11]: 6.7 months
neutropenia (most commonly reported adverse effect) [12]: 90 % of patients

Nc1nc(Nc2ccc3c(c2)CC[C@@H](N2CCCC2)CC3)nn1-c1cc2c(nn1)-c1ccccc1CCC2 [BGB324]
effect on GFP levels when combined with GA [8]: did not exert an effect
effect on cell viability and proliferation [9]: cytostatic
recovery of cell growth after drug removal [9]: within four passages
phosphorylation of Axl (pAxl) [13]: inhibited phosphorylation of Axl

Cc1c(CN2CCN(C(=O)[C@H](C)O)CC2)sc2c(N3CCOCC3)nc(-c3cnc(N)nc3)nc12 [GDC980]
effect on GFP levels when combined with GA [8]: did not exert an effect
